Patent US6355799B1, “Substituted benzene compounds, process for their preparation, and herbicidal and defoliant compositions containing them” (ISK Americas Incorporated, priority 1997, dated 2002)

Key:
Format in all cases: in vivo
[1] = test system: barnyardgrass (Echinochloa crus-galli, ECHCG); experiment: Post-emerge test, greenhouse herbicide activity screening; conditions: phytotoxicity rating 0-100 (0 no damage, 100 complete death), 14 days after application
How it was run: (§1)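 Compounds in acetone were track-sprayed at 15-1000 g ai/ha (187 l/ha) on sandy loam pots: pre-emerge one day after seeding, post-emerge at 2-3 leaf stage with 0.25% v/v non-ionic surfactant. Phytotoxicity was rated 14 days later on a 0 (no damage) to 100 (complete death) scale.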

[2] = test system: sicklepod (Cassia obtusifolia, CASOB); experiment: as above; conditions: phytotoxicity rating 0-100 (0 no damage, 100 complete death), 14 days after application
How it was run: as §1

[3] = test system: common ragweed (Ambrosia artemisizfolia L., AMBEL); experiment: as above; conditions: phytotoxicity rating 0-100 (0 no damage, 100 complete death), 14 days after application
How it was run: as §1

[4] = test system: ivyleaf morningglory (Ipomoea hederacea, IPOHE); experiment: as above; conditions: phytotoxicity rating 0-100 (0 no damage, 100 complete death), 14 days after application
How it was run: as §1

[5] = test system: lambsquarters (Chenopodium album, CHEAL); experiment: as above; conditions: phytotoxicity rating 0-100 (0 no damage, 100 complete death), 14 days after application
How it was run: as §1

[6] = test system: large crabgrass (Digitaria sanguinalis, DIGSA); experiment: as above; conditions: phytotoxicity rating 0-100 (0 no damage, 100 complete death), 14 days after application
How it was run: as §1

[7] = test system: johnsongrass (Sorghum halepense, SORHA); experiment: as above; conditions: phytotoxicity rating 0-100 (0 no damage, 100 complete death), 14 days after application
How it was run: as §1

[8] = test system: redroot pigweed (Amaranthus retroflexus, AMARE); experiment: as above; conditions: phytotoxicity rating 0-100 (0 no damage, 100 complete death), 14 days after application
How it was run: as §1

[9] = test system: velvetleaf (Abutilon theophrasti, ABUTH); experiment: as above; conditions: phytotoxicity rating 0-100 (0 no damage, 100 complete death), 14 days after application
How it was run: as §1

[10] = test system: barnyardgrass (Echinochloa crus-galli, ECHCG); experiment: Pre-emerge test, greenhouse herbicide activity screening; conditions: pre-emerge, rated 14 days after application, 0 = no damage, 100 = complete death
How it was run: (§2)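 Sandy loam pots; pre-emerge: sown 1 d pre-spray, surface-watered after, then bottom-watered. Post-emerge: sown 8–21 d before, 2–3 leaf stage, + 0.25% v/v NIS, bottom-watered. Acetone, 187 l/ha track spray, 15–1000 g ai/ha. 0–100 injury score, day 14.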

[11] = test system: sicklepod (Cassia obtusifolia, CASOB); experiment: as above; conditions: pre-emerge, rated 14 days after application, 0 = no damage, 100 = complete death
How it was run: as §2

[12] = test system: common ragweed (Ambrosia artemisizfolia L., AMBEL); experiment: as above; conditions: pre-emerge, rated 14 days after application, 0 = no damage, 100 = complete death
How it was run: as §2

[13] = test system: green foxtail (Setaria viridis, SETVI); experiment: as above; conditions: pre-emerge, rated 14 days after application, 0 = no damage, 100 = complete death
How it was run: as §2

[14] = test system: ivyleaf morningglory (Ipomoea hederacea, IPOHE); experiment: as above; conditions: pre-emerge, rated 14 days after application, 0 = no damage, 100 = complete death
How it was run: as §2

[15] = test system: lambsquarters (Chenopodium album, CHEAL); experiment: as above; conditions: pre-emerge, rated 14 days after application, 0 = no damage, 100 = complete death
How it was run: as §2

[16] = test system: large crabgrass (Digitaria sanguinalis, DIGSA); experiment: as above; conditions: pre-emerge, rated 14 days after application, 0 = no damage, 100 = complete death
How it was run: as §2

[17] = test system: johnsongrass (Sorghum halepense, SORHA); experiment: as above; conditions: pre-emerge, rated 14 days after application, 0 = no damage, 100 = complete death
How it was run: as §2

[18] = test system: velvetleaf (Abutilon theophrasti, ABUTH); experiment: as above; conditions: pre-emerge, rated 14 days after application, 0 = no damage, 100 = complete death
How it was run: as §2

[19] = test system: upland rice (Oryza sp., var. Tebonnet, RICE); experiment: Post-emerge test, crop safety; conditions: phytotoxicity rating 0-100 (0 no damage, 100 complete death), 14 days after application
How it was run: as §2

[20] = test system: field corn (Zea mays L., var. Dekalb 535, CORN); experiment: Post-emerge test, crop safety; conditions: phytotoxicity rating 0-100 (0 no damage, 100 complete death), 14 days after application
How it was run: as §2

[21] = test system: redroot pigweed (Amaranthus retroflexus, AMARE); experiment: Pre-emerge test, greenhouse herbicide activity screening; conditions: pre-emerge, rated 14 days after application, 0 = no damage, 100 = complete death
How it was run: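 Visual ratings on a 0-100 scale (0 no damage, 100 all plants dead) were taken at 14 days after treatment. Rates of 15-1000 g ai/ha in acetone, 187 l/ha, were sprayed onto soil one day after planting (pre-emerge) or onto 2-3 leaf plants with 0.25% v/v surfactant (post-emerge).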

[22] = test system: upland rice (Oryza sp., var. Tebonnet, RICE); experiment: Pre-emerge test, crop safety; conditions: pre-emerge, rated 14 days after application, 0 = no damage, 100 = complete death
How it was run: (§3)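 Applied at 15–1000 g ai/ha from acetone in 187 l/ha spray volume. Post-emergence applications included 0.25% v/v non-ionic surfactant and reached plants sown 8–21 days before. Pre-emergence applications were incorporated by surface watering. Efficacy or crop damage was rated on a 0–100 scale after 14 days.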

[23] = test system: field corn (Zea mays L., var. Dekalb 535, CORN); experiment: Pre-emerge test, crop safety; conditions: pre-emerge, rated 14 days after application, 0 = no damage, 100 = complete death
How it was run: as §3

CCc1ccc(C(=O)Nc2c(OC)c(Cl)cc(F)c2-n2c(=O)cc(C(F)(F)F)n(C)c2=O)cc1 [2-27]
Post-emerge Herbicidal Activity ECHCG ([1]; 63 g ai/ha): 0
Post-emerge Herbicidal Activity ECHCG ([1]; 250 g ai/ha): 80
Post-emerge Herbicidal Activity CASOB ([2]; 63 g ai/ha): 50
Post-emerge Herbicidal Activity CASOB ([2]; 250 g ai/ha): 90
Post-emerge Herbicidal Activity AMBEL ([3]; 63 g ai/ha): 60
Post-emerge Herbicidal Activity AMBEL ([3]; 250 g ai/ha): 90
Post-emerge Herbicidal Activity IPOHE ([4]; 63 g ai/ha): 90
Post-emerge Herbicidal Activity IPOHE ([4]; 250 g ai/ha): 100
Post-emerge Herbicidal Activity CHEAL ([5]; 63 g ai/ha): 90
Post-emerge Herbicidal Activity CHEAL ([5]; 250 g ai/ha): 100
Post-emerge Herbicidal Activity DIGSA ([6]; 63 g ai/ha): 10
Post-emerge Herbicidal Activity DIGSA ([6]; 250 g ai/ha): 70
Post-emerge Herbicidal Activity SORHA ([7]; 63 g ai/ha): 20
Post-emerge Herbicidal Activity SORHA ([7]; 250 g ai/ha): 85
Post-emerge Herbicidal Activity AMARE ([8]; 63 g ai/ha): 100
Post-emerge Herbicidal Activity AMARE ([8]; 250 g ai/ha): 100
Post-emerge Herbicidal Activity ABUTH ([9]; 63 g ai/ha): 100
Post-emerge Herbicidal Activity ABUTH ([9]; 250 g ai/ha): 100
Pre-emerge Herbicidal Activity ECHCG (phytotoxicity rating, scale 0-100) ([10]; 63 g ai/ha): 50
Pre-emerge Herbicidal Activity ECHCG (phytotoxicity rating, scale 0-100) ([10]; 250 g ai/ha): 100
Pre-emerge Herbicidal Activity CASOB (phytotoxicity rating, scale 0-100) ([11]; 63 g ai/ha): 60
Pre-emerge Herbicidal Activity CASOB (phytotoxicity rating, scale 0-100) ([11]; 250 g ai/ha): 100
Pre-emerge Herbicidal Activity AMBEL (phytotoxicity rating, scale 0-100) ([12]; 63 g ai/ha): 100
Pre-emerge Herbicidal Activity AMBEL (phytotoxicity rating, scale 0-100) ([12]; 250 g ai/ha): 100
Pre-emerge Herbicidal Activity SETVI (phytotoxicity rating, scale 0-100) ([13]; 63 g ai/ha): 100
Pre-emerge Herbicidal Activity SETVI (phytotoxicity rating, scale 0-100) ([13]; 250 g ai/ha): 100
Pre-emerge Herbicidal Activity IPOHE (phytotoxicity rating, scale 0-100) ([14]; 63 g ai/ha): 80
Pre-emerge Herbicidal Activity IPOHE (phytotoxicity rating, scale 0-100) ([14]; 250 g ai/ha): 100
Pre-emerge Herbicidal Activity CHEAL (phytotoxicity rating, scale 0-100) ([15]; 63 g ai/ha): 100
Pre-emerge Herbicidal Activity CHEAL (phytotoxicity rating, scale 0-100) ([15]; 250 g ai/ha): 100
Pre-emerge Herbicidal Activity DIGSA (phytotoxicity rating, scale 0-100) ([16]; 63 g ai/ha): 95
Pre-emerge Herbicidal Activity DIGSA (phytotoxicity rating, scale 0-100) ([16]; 250 g ai/ha): 100
Pre-emerge Herbicidal Activity SORHA (phytotoxicity rating, scale 0-100) ([17]; 63 g ai/ha): 30
Pre-emerge Herbicidal Activity SORHA (phytotoxicity rating, scale 0-100) ([17]; 250 g ai/ha): 80
Pre-emerge Herbicidal Activity ABUTH (phytotoxicity rating, scale 0-100) ([18]; 63 g ai/ha): 100
Pre-emerge Herbicidal Activity ABUTH (phytotoxicity rating, scale 0-100) ([18]; 250 g ai/ha): 100
Post-emerge Herbicidal Activity RICE (crop damage) ([19]; 63 g ai/ha): 60
Post-emerge Herbicidal Activity RICE (crop damage) ([19]; 250 g ai/ha): 95
Post-emerge Herbicidal Activity CORN (crop damage) ([20]; 63 g ai/ha): 50
Post-emerge Herbicidal Activity CORN (crop damage) ([20]; 250 g ai/ha): 95
Pre-emerge Herbicidal Activity AMARE (phytotoxicity rating, scale 0-100) ([21]; 63 g ai/ha): 100
Pre-emerge Herbicidal Activity AMARE (phytotoxicity rating, scale 0-100) ([21]; 250 g ai/ha): 100
Pre-emerge crop damage RICE (phytotoxicity rating, scale 0-100) ([22]; 63 g ai/ha): 70
Pre-emerge crop damage RICE (phytotoxicity rating, scale 0-100) ([22]; 250 g ai/ha): 90
Pre-emerge crop damage CORN (phytotoxicity rating, scale 0-100) ([23]; 63 g ai/ha): 20
Pre-emerge crop damage CORN (phytotoxicity rating, scale 0-100) ([23]; 250 g ai/ha): 90
